Columns and labels:
[1] = system: LoVo (human colon adenocarcinoma); assay: MTS cytotoxicity assay, LoVo cells; type: cell-based; conditions: 48 h of incubation
Method: (§1) For the evaluation of the cytotoxic effects of the complexes and ligand two human cancer cell lines were used, namely MDA-MB 231 (human breast adenocarcinoma) and LoVo (human colon adenocarcinoma); a normal cell line, human umbilical vein endothelial cells (HUVEC), was used as a reference. […] After 24 h and 48 h, respectively, cell viability was evaluated through MTS assay (data shown in Figures S16–S18) and the IC50 values were calculated (Table 5). The cytotoxicity assay is based on the ability of metabolically active cells to reduce MTS, a yellow tetrazolium salt, to the colored formazan, soluble in the culture medium; the concentration of formazan can be spectrophotometrically determined. […] PES is a cationic dye with high chemical stability that binds to MTS and forms a stable solution. […] The reduced MTS to formazan was spectrophotometrically measured at λ = 492 nm. The test was run on two cancer cell lines, LoVo and MDA-MB 231, and on a normal cell line, HUVEC. […] Cell viability data were obtained in triplicate (n = 3) and expressed as mean values ± standard deviations (SD). […] All assays were performed in 96-well microtiter plates with flat bottom (Falcon), using CellTiter 96 Aqueous One Solution Cell Proliferation Assay (Promega), an MTS-based colorimetric assay. The formazan was spectrophotometrically measured using the Tecan GENios Spectrophotometer.

[2] = system: MDA-MB 231 (human breast adenocarcinoma); assay: MTS cytotoxicity assay, MDA-MB 231 cells; type: cell-based; conditions: 48 h of incubation
Method: as §1

[3] = system: HUVEC (normal human umbilical vein endothelial cells); assay: MTS cytotoxicity assay, HUVEC normal cells; type: cell-based; conditions: 48 h of incubation
Method: as §1

[4] = system: CT-DNA (double-stranded calf-thymus DNA); assay: DNA binding by UV-Vis spectra (titration with CT-DNA); conditions: 20 µM compound, 0–40 µM DNA, Tris-HCl pH 7.4, room temperature
[5] = system: EB-DNA system (CT-DNA); assay: Competitive binding assay with ethidium bromide (EB) through fluorescence spectroscopy; set-up: species or system calf; conditions: 10 µM CT-DNA, 2 µM EB; for Ksv (Stern-Volmer quenching constant, EB-DNA system): 0–40 µM compound, λex 500 nm; for K50 (EB Displacement Assay): concentration corresponding to 50% binding
Description: The manner of binding to the DNA macromolecule can be investigated through competitive binding studies with ethidium bromide (3,8-diamino-5-ethyl-6-phenylphenanthridinium bromide), a fluorescent dye; due to its aromatic ring, it can intercalate between two adjacent base pairs in the DNA structure and form a complex which emits fluorescent light; displacing EB results in a quenching effect. The Stern-Volmer constant (KSV) and the dissociation constant (K50) have been calculated from the resulting data.
Competitive binding studies were carried out on a Jasco FP 6500 fluorometer at room temperature, using quartz cells of 1 cm path-length. The fluorescence spectra were recorded on 1.6 mL samples containing 10 µM CT-DNA and 2 µM EB in the absence and presence of increasing amounts (0–40 µM with an increment of 5 µM) of complexes and free ligands, respectively, after being kept in contact for 10 min at room temperature, under continuous stirring and in the dark. The excitation wavelength used was 500 nm and the spectra was recorded in the 520–800 nm range. Two control samples were used, the first one containing DMSO, DNA and EB and the second one just the complex.
Data from the assay can be interpreted using the classical Stern-Volmer equation (Equation (3)):(3) F0/F=1+ KSV·[Q] where F0 and F are the fluorescence intensities of the EB-DNA samples in the absence and presence of the tested compounds and [Q] is the concentration of the compound; KSV is the Stern-Volmer constant and can be calculated from the plot of F0/F vs. [Q] as the slope.
The ratio of binding relative to the control sample exposed only to DMSO was plotted against the logarithm of concentration. The data points were fitted using the modified Hill function with offset (Origin®) (Equation (4)):(4) y=A1+(A2−A1)×x^n/K50^n+x^n where y is the ratio of binding (F/F0) and x is the concentration, A1 is the minimum of y values, A2 is the maximum of y values, K50 is the concentration corresponding to 50% binding and n is the Hill coefficient.

[6] = target: T1, Apo-transferrin (apo-Tf) (Homo sapiens, UniProt P02787); assay: Fluorescence quenching of apo-transferrin; type: binding; conditions: for quenching effect on apo-Tf fluorescence peak / Ksv (Stern-Volmer constant), apo-Tf: 1 µM apo-Tf; for quenching effect on apo-Tf fluorescence peak: compound up to 8 µM, λex 295 nm; for Ka (association binding constant), apo-Tf / n (Hill Coefficient), apo-Tf / n (Number of Binding Sites), apo-Tf / Ksv (Stern-Volmer constant), apo-Tf / Kq (bimolecular quenching constant), apo-Tf / fa (fraction of fluorophore accessible to the quencher), apo-Tf / Kd: 298 K; for Ksv (Stern-Volmer constant), apo-Tf: 0–8 µM compound, pH 7.4; for Kq (bimolecular quenching constant), apo-Tf: from KSV = Kq τ0; for fa (fraction of fluorophore accessible to the quencher), apo-Tf: modified Stern-Volmer; for Kd: read-out: Kd, apo-Tf
T1 construct: purchased Sigma Aldrich Chemical Co. (Schnelldorf, Germany)

[7] = target: T2, Human serum albumin (HSA) (Homo sapiens, UniProt P02768)
[8] = target: T2, Human serum albumin (HSA); assay: Fluorescence quenching of human serum albumin; conditions: for quenching effect on HSA fluorescence peak / Ksv (Stern-Volmer constant), HSA: 2.5 µM HSA; for quenching effect on HSA fluorescence peak: compound up to 8 µM, λex 280 nm; for Ka (association binding constant), HSA / n (Hill Coefficient), HSA / n (Number of Binding Sites), HSA / Ksv (Stern-Volmer constant), HSA / Kq (bimolecular quenching constant), HSA / fa (fraction of fluorophore accessible to the quencher), HSA: 298 K; for Ksv (Stern-Volmer constant), HSA: 0–8 µM compound, pH 7.4; for Kq (bimolecular quenching constant), HSA: from KSV = Kq τ0; for fa (fraction of fluorophore accessible to the quencher), HSA: modified Stern-Volmer

T1 sequence (P02787 20-698): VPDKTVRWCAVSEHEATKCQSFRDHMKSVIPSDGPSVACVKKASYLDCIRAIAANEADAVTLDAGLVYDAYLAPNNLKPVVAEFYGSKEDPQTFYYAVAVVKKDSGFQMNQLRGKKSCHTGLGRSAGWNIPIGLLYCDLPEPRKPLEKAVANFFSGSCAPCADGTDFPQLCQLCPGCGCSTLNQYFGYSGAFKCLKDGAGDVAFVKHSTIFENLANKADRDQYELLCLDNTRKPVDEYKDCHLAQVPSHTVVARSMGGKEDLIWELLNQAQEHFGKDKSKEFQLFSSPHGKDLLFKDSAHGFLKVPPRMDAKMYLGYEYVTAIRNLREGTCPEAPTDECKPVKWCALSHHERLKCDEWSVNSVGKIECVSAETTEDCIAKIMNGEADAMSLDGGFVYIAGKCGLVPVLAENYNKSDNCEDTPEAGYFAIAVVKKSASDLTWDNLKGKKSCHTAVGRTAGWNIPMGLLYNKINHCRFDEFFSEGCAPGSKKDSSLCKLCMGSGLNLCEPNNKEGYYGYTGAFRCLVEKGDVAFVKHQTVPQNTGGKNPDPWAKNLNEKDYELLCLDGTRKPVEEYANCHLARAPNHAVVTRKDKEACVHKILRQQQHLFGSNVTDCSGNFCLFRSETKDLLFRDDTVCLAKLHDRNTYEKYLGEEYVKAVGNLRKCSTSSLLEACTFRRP
T2 sequence (P02768 25-609): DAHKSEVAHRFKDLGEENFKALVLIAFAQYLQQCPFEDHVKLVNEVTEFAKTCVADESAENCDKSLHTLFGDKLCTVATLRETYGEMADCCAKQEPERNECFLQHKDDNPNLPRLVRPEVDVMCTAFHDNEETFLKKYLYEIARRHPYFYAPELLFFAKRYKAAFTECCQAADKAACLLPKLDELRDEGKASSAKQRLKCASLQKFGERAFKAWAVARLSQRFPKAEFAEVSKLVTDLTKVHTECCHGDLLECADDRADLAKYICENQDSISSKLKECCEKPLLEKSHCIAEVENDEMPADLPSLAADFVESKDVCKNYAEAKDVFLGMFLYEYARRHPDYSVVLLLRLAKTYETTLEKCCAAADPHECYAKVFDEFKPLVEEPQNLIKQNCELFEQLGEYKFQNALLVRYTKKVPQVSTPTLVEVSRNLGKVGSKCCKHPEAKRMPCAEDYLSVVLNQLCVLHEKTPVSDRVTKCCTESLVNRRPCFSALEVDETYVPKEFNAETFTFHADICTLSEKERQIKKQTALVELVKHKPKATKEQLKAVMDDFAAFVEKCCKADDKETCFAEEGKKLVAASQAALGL

## CCn1cc(C(=O)[O][Eu]([OH])[O]C(=O)c2cn(CC)c3cc4c(cc3c2=O)OCO4)c(=O)c2cc3c(cc21)OCO3.O [Eu oxo, [Eu(oxo)(OH)(H2O)]]
[1]
  IC50: 107 ± 16 µM
[2]
  IC50: 73.7 ± 19.8 µM
[3]
  IC50: > 200 µM
[4]
  Kb (DNA binding constant): 10.72 (± 2.47) × 10^5 L∙mol^−1
[5]
  Ksv (Stern-Volmer quenching constant, EB-DNA system): (1.26 ± 0.02) × 10^4
  K50 (EB Displacement Assay): 40.15 ± 11.82 µM
[6]
  quenching effect on apo-Tf fluorescence peak: 50%
  Ka (association binding constant), apo-Tf: (2.74 ± 0.41) × 10^4 M^−1
  n (Hill Coefficient), apo-Tf: 0.95 ± 0.21
  n (Number of Binding Sites), apo-Tf: 0.88 ± 0.01
  Ksv (Stern-Volmer constant), apo-Tf: (16.55 ± 0.94) × 10^4 M^−1
  Kq (bimolecular quenching constant), apo-Tf: 1.655e+13 M⁻¹ s⁻¹
  fa (fraction of fluorophore accessible to the quencher), apo-Tf: 0.81 ± 0.02
  Kd: 8.27 ± 4.17 µM
[7]
  Kd: 5.56 ± 0.86 µM
[8]
  quenching effect on HSA fluorescence peak: ~ 58%
  Ka (association binding constant), HSA: (4.75 ± 0.80) × 10^5 M^−1
  n (Hill Coefficient), HSA: 1.33 ± 0.18
  n (Number of Binding Sites), HSA: 1.11 ± 0.01
  Ksv (Stern-Volmer constant), HSA: 11.25 (± 0.92) × 10^4 M^−1
  Kq (bimolecular quenching constant), HSA: 1.125e+13 M⁻¹ s⁻¹
  fa (fraction of fluorophore accessible to the quencher), HSA: 0.94 ± 0.04
[8]; listed as Eu-oxo
  Ksv (Stern-Volmer constant), HSA: (11.25 ± 0.92) × 10^4 M^−1

## CCn1cc(C(=O)[O][La]([OH])[O]C(=O)c2cn(CC)c3cc4c(cc3c2=O)OCO4)c(=O)c2cc3c(cc21)OCO3.O [La oxo, [La(oxo)(OH)(H2O)]]
[1]
  IC50: 52.1 ± 5.54 µM
[2]
  IC50: > 100 µM
[3]
  IC50: > 200 µM
[4]
  Kb (DNA binding constant): 2.57 (± 0.17) × 10^5 L∙mol^−1
[5]
  Ksv (Stern-Volmer quenching constant, EB-DNA system): 1.27 (±0.03) × 10^4
  K50 (EB Displacement Assay): 37.05 ± 8.86 µM
[5]; listed as La-oxo
  Ksv (Stern-Volmer quenching constant, EB-DNA system): (1.27 ± 0.03) × 10^4
[6]
  Ka (association binding constant), apo-Tf: (0.53 ± 0.23) × 10^4 M^−1
  n (Hill Coefficient), apo-Tf: 1.71 ± 0.21
  n (Number of Binding Sites), apo-Tf: 0.77 ± 0.03
  Ksv (Stern-Volmer constant), apo-Tf: (14.13 ± 1.46) × 10^4 M^−1
  Kq (bimolecular quenching constant), apo-Tf: 1.413e+13 M⁻¹ s⁻¹
  fa (fraction of fluorophore accessible to the quencher), apo-Tf: 0.68 ± 0.03
  Kd: 8.89 ± 2.11 µM
[7]
  Kd: 6.22 ± 1.05 µM
[8]
  Ka (association binding constant), HSA: (5.80 ± 2.01) × 10^5 M^−1
  n (Hill Coefficient), HSA: 1.74 ± 0.21
  n (Number of Binding Sites), HSA: 1.14 ± 0.02
  Ksv (Stern-Volmer constant), HSA: (6.82 ± 0.74) × 10^4 M^−1
  Kq (bimolecular quenching constant), HSA: 6.82e+12 M⁻¹ s⁻¹
  fa (fraction of fluorophore accessible to the quencher), HSA: 1.26 ± 0.11

## CCn1cc(C(=O)[O][Sm]([OH])[O]C(=O)c2cn(CC)c3cc4c(cc3c2=O)OCO4)c(=O)c2cc3c(cc21)OCO3.O.O [Sm oxo, [Sm(oxo)(OH)(H2O)] · H2O]
[1]
  IC50: 41.5 ± 15.3 µM
[2]
  IC50: 40.4 ± 6.27 µM
[3]
  IC50: > 200 µM
[4]
  Kb (DNA binding constant): 9.33 (± 1.46) × 10^4 L∙mol^−1
[5]
  Ksv (Stern-Volmer quenching constant, EB-DNA system): (1.21 ± 0.03) × 10^4
  K50 (EB Displacement Assay): 41.55 ± 19.32 µM
[6]
  Ka (association binding constant), apo-Tf: (4.16 ± 1.09) × 10^4 M^−1
  n (Hill Coefficient), apo-Tf: 2.03 ± 0.32
  n (Number of Binding Sites), apo-Tf: 0.95 ± 0.02
  Ksv (Stern-Volmer constant), apo-Tf: (9.34 ± 0.66) × 10^4 M^−1
  Kq (bimolecular quenching constant), apo-Tf: 9.34e+12 M⁻¹ s⁻¹
  fa (fraction of fluorophore accessible to the quencher), apo-Tf: 0.85 ± 0.05
  Kd: 5.73 ± 0.55 µM
[7]
  Kd: 4.69 ± 0.87 µM
[8]
  Ka (association binding constant), HSA: (4.28 ± 2.12) × 10^5 M^−1
  n (Hill Coefficient), HSA: 1.55 ± 0.37
  n (Number of Binding Sites), HSA: 1.11 ± 0.04
  Ksv (Stern-Volmer constant), HSA: (6.56 ± 0.90) × 10^4 M^−1
  Kq (bimolecular quenching constant), HSA: 6.56e+12 M⁻¹ s⁻¹
  fa (fraction of fluorophore accessible to the quencher), HSA: 1.44 ± 0.15

## [Tb(oxo)(OH)(H2O)] · 0.5 H2O [Tb oxo]
[1]
  IC50: 40.6 ± 7.43 µM
[2]
  IC50: > 200 µM
[3]
  IC50: > 200 µM
[5]
  Ksv (Stern-Volmer quenching constant, EB-DNA system): (1.18 ± 0.00) × 10^4
  K50 (EB Displacement Assay): 20.28 ± 1.15 µM
[6]
  quenching effect on apo-Tf fluorescence peak: 47.62%
  Ka (association binding constant), apo-Tf: (1.28 ± 0.17) × 10^4 M^−1
  n (Hill Coefficient), apo-Tf: 1.57 ± 0.33
  n (Number of Binding Sites), apo-Tf: 0.81 ± 0.01
  Ksv (Stern-Volmer constant), apo-Tf: 19.45 (± 1.10) × 10^4 M^−1
  Kq (bimolecular quenching constant), apo-Tf: 1.945e+13 M⁻¹ s⁻¹
  fa (fraction of fluorophore accessible to the quencher), apo-Tf: 0.77 ± 0.01
  Kd: 5.57 ± 1.22 µM
[6]; listed as Tb-oxo
  Ksv (Stern-Volmer constant), apo-Tf: (19.45 ± 1.10) × 10^4 M^−1
[7]
  Kd: 5.97 ± 0.89 µM
[8]
  quenching effect on HSA fluorescence peak: 52.63%
  Ka (association binding constant), HSA: 6.83(±1.33) × 10^5 M^−1
  n (Hill Coefficient), HSA: 1.58 ± 0.20
  n (Number of Binding Sites), HSA: 1.18 ± 0.01
  Ksv (Stern-Volmer constant), HSA: (2.84 ± 0.70) × 10^4 M^−1
  Kq (bimolecular quenching constant), HSA: 2.84e+12 M⁻¹ s⁻¹
  fa (fraction of fluorophore accessible to the quencher), HSA: 2.13 ± 0.45
[8]; listed as Tb-oxo
  Ka (association binding constant), HSA: (6.83 ± 1.33) × 10^5 M^−1
